≈ marks a conversion by molar mass, not a printed value. Where a SMILES comes first, the peptide text is derived from it. Where no end group is shown, it is not given here. The star is where a group is joined. Octanoyl = CCCCCCCC(=O)*
Assays:
[1] = RP-HPLC adjusted retention time as measure of hydrophobicity; type: physicochemical; settings: chromatographic, Phenomenex Gemini-NX C18 4.6 × 150 mm, linear gradient 10–100% B (0.1% TFA in ACN) in A (0.1% aqueous TFA) over 10 min, 25 °C, 0.5 mL/min, UV 214 nm; used as hydrophobicity measure
Source text: The identity of the purified peptides was confirmed using electrospray ionization mass spectrometry (ESI-MS) in positive ion mode and the results are shown in Table S1 (Supplementary Materials).
The conjugation of KR12-NH2 with aliphatic and aromatic acids affords more hydrophobic compounds than the parent molecule, but it depends on the modified amino group involved. The conjugation of C8 to N^α amino group of the N-terminal amino acid gives a more distinct increase in hydrophobicity than that of C8 in the sidechain of lysine residues (i.e., II vs. III; IV vs. V). […] Moreover, in the acidic conditions of the mobile phase (0.1% TFA; pH 2,) both amino groups are protonated. Hypothetically, the acylation of the N^α-amino group disrupts the helix macrodipole and eliminates excessive positive charge. The dipole moment and positive charge can obviously contribute to peptide hydrophilicity. This phenomenon applies exclusively to the N^α-amino group, but not so much to N^ε. […]
Finally, the peptides were purified with solid-phase extraction (SPE) on Isolute ^TM SPE columns (flash, C18, 25 mL). The eluates were fractionated, and the purity of the peptides was determined on a Varian ProStar HPLC system controlled by a Galaxie Chromatography Data System with a Phenomenex Gemini-NX C18 column (4.6 × 150 mm, 110 Å pore size, 5 µm particle size). […]

[2] = test system: Enterococcus faecium ATCC 700221; type: cell-based; settings: ATCC 700221, 18 h
Summary of the method: (§1)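 MICs were determined by CLSI broth microdilution in Mueller–Hinton broth, with inocula of 0.5 × 10^5 CFU/mL exposed to peptides at 1–512 µg/mL. After 18 h at 37 °C, the MIC was taken as the lowest concentration inhibiting visible growth; triplicate runs with growth and sterility controls.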

[3] = test system: Klebsiella aerogenes ATCC 13048; type: cell-based; settings: ATCC 13048, 18 h
Summary of the method: as §1

[4] = test system: Klebsiella pneumoniae ATCC 700603; type: cell-based; settings: ATCC 700603, 18 h
Summary of the method: as §1

[5] = test system: Pseudomonas aeruginosa ATCC 9027; type: cell-based; settings: ATCC 9027, 18 h
Summary of the method: as §1

[6] = test system: S. aureus ATCC 12598; type: cell-based, Staphylococcus aureus; settings: ATCC 12598, 18 h
Summary of the method: as §1

[7] = test system: S. aureus ATCC 25923; type: cell-based, Staphylococcus aureus; settings: ATCC 25923, 18 h
Summary of the method: as §1

[8] = test system: S. aureus ATCC 33591 (MRSA); type: cell-based, Staphylococcus aureus; settings: ATCC 33591, 18 h
Summary of the method: as §1

[9] = test system: S. aureus ATCC 6538; type: cell-based, Staphylococcus aureus; settings: ATCC 6538, 18 h
Summary of the method: as §1

[10] = test system: S. aureus ATCC 9144; type: cell-based, Staphylococcus aureus; settings: ATCC 9144, 18 h
Summary of the method: as §1

[11] = test system: reference strains of Staphylococcus aureus; assay: MIC over the five reference strains of S. aureus (geometric mean, range, selectivity); type: cell-based; settings: MIC values of Table 3
Method: Selectivity indexes were calculated based on the MHC5 and geometric mean (GM) of MIC values against S. aureus strains.
Tests of the antibacterial activity were carried out as we just described. Briefly, for assays, the following strains of ESKAPE bacteria were chosen: Acinetobacter baumannii ATCC BAA-1605, Enterococcus faecium ATCC 700221, Klebsiella aerogenes ATCC 13048 (formerly Enterobacter aerogenes), Klebsiella pneumoniae ATCC 700603, and Pseudomonas aeruginosa ATCC 9027. Moreover, the reference strains of Staphylococcus aureus were used: S. aureus ATCC 25923, S. aureus ATCC 6538, S. aureus ATCC 33591 (MRSA), S. aureus ATCC 9144, and S. aureus ATCC 12598. Before experiments, all the strains were stored at −80 °C in Roti®-Store cryo vials (Carl Roth GmbH, Karlsruhe, Germany). To evaluate the activity of the compounds, bacteria were transferred into fresh Mueller–Hinton medium (Becton Dickinson, Warszawa, Poland) and incubated for 24 h at 37 °C. In the next step, bacterial inoculums were seeded on Mueller–Hinton agar plates (BioMaxima SA, Lublin, Poland) and incubated again for 24 h. The MIC values were determined using the broth microdilution method according to the Clinical and Laboratory Standards Institute Protocol. […] The results were read after incubation for 18 h at 37 °C. […]

[12] = 18 h
[13] = test system: human red blood cells (hRBCs); assay: Hemolysis assay; settings: 4% (v/v) erythrocytes in PBS, peptides 1–512 µg/mL, 1 h at 37 °C, hemoglobin at 540 nm, 100% = 1% Triton-X 100; ≥ means less than 5% hemolysis up to 512 µg/mL
Method: To facilitate a comparison of hemolytic activity between the analogs, MHC5 values were determined. MHC5 is the minimum hemolytic concentration of the compounds that caused the 5% hemolysis of hRBCs.
Briefly, the fresh hRBCs with EDTA as anticoagulant were rinsed three times with PBS through centrifugation at 800× g for 10 min and resuspended in PBS. The serial dilution of peptides (1–512 µg/mL) was prepared in PBS on 96-well plates. Then, the stock RBCs solution was added to the plates to reach a final volume of 100 µL with a 4% concentration of erythrocytes (v/v). The control wells for 0 (RBCs in PBS) and 100% (RBCs in 1% Triton-X 100) hemolysis were also prepared. Then, the plates were incubated for 1 h at 37 °C and centrifuged at 800× g for 10 min at 4 °C (Sorvall ST 16R Centrifuge, Thermo Scientific, Waltham, MA, USA). After centrifugation, the supernatant was carefully transferred to new microtiter plates and the release of hemoglobin was measured at 540 nm (Multiskan™ GO Microplate Spectrophotometer, Thermo Scientific, Waltham, MA, USA). The percentage of hemolysis was calculated based on wells with 100% hemolysis.

Row | Molecule | HPLC tR (adjusted retention time, t'R) [1] [min] | MIC E. faecium [2] [µg/mL] | MIC K. aerogenes [3] [µg/mL] | MIC K. pneumoniae [4] [µg/mL] | MIC P. aeruginosa [5] [µg/mL] | MIC S. aureus 12598 [6] [µg/mL] | MIC S. aureus 25923 [7] [µg/mL] | MIC S. aureus 33591 [8] [µg/mL] | MIC S. aureus 6538 [9] [µg/mL] | MIC S. aureus 9144 [10] [µg/mL] | GM (geometric mean of the MIC values against S. aureus) [11] | MIC A. baumannii [12] [µg/mL] | MHC5 (minimum hemolytic concentration causing 5% hemolysis of hRBCs) [13] [µg/mL]
1 | CCCCCCCC(=O)NCCCC[C@H](NC(=O)[C@H](CCCNC(=N)N)NC(=O)[C@@H](NC(=O)[C@@H](NC(=O)[C@H](CCC(N)=O)NC(=O)[C@H](CCCNC(=N)N)NC(=O)[C@@H](NC(=O)[C@H](CCCCN)NC(=O)[C@H](CC(=O)O)NC(=O)[C@H](Cc1ccccc1)NC(=O)[C@H](CC(C)C)NC(=O)[C@@H](N)CCCNC(=N)N)[C@@H](C)CC)C(C)C)[C@@H](C)CC)C(N)=O [XI, retro-KR12-C8^ε-NH2] (H-RLFDKIRQVIRK(Octanoyl)-NH2) | 5.05 | 32 (≈ 18.9 µM) | 512 (≈ 302 µM) | 512 (≈ 302 µM) | 128 (≈ 75.4 µM) | 512 (≈ 302 µM) | 128 (≈ 75.4 µM) | 512 (≈ 302 µM) | 16 (≈ 9.43 µM) | 256 (≈ 151 µM) | 168.9 | 64 (≈ 37.7 µM) | –
2 | KRIVQRIKDFLR-NH2 [I, KR12-NH2] | – | 128 | >512 | >512 | 128 | >512 | >512 | >512 | 512 | >512 | – | 256 | ≥512
